Here are results for 16 molecules from patent US5401760A, “Heterocyclic compounds” (Ono Pharmaceutical Co., Ltd., priority 1988, dated 1995).

Assay [1] addresses T1, prolyl endopeptidase (Bos taurus, UniProt Q9XTA2).
T1 construct: prolyl endopeptidase which was purified from bovine brain; from tissue; host or cells: bovine brain (purified enzyme)
As to the kind of experiment: Prolyl endopeptidase inhibitory activity in vitro. The assay is classed as biochemical. The following applies: enzyme purified from bovine brain, pH 7.5, 37° C., substrate N-benzyloxycarbonyl-glycyl-prolyl-p-nitroanilide, read-out: Concentration for 50% inhibition IC50. The protocol: For example, in a standard laboratory test, results in the following were given.
Prolyl endopeptidase inhibitory activity in vitro
Inhibitory activity of prolyl endopeptidase in vitro was measured by the following test system.
A mixed solution of 20 mM tris-HCl buffer (pH 7.5; 935 μl; containing 10 mM EDTA and 10 mM mercaptoethanol), a solution of a compound of the present invention in DMSO (10 μl) and a solution of prolyl endopeptidase which was purified from bovine brain (0.13 unit ml; prepared by the method described in J. Biochem., 94, 1179 (1983) ) in tris-HCl buffer (15 μl) was preincubated for 15 mins at 37° C.
To the solution, 5 mM of N-benzyloxycarbonyl-glycyl-prolyl-p-nitroanilide (40 μl) in a mixture of 40% dioxane-60% water was added. The solution was incubated for 1 min at the same temperature.
Optical absorption (a1) at 405 nm of the solution, and optical absorption (a2) at 405 nm of the solution after more 30 mins' incubation at 37° C. were measured.
Optical absorptions (b1 and b2) of the solutions using DMSO instead of the solution of the compound of the present invention were also measured.
Inhibitory ratio was calculated by the following expression and IC50 (required concentration for 50% inhibition) was obtained (See Protein, Nucleic acid and Enzyme 25(6), 513, 1980.). [formula] Toxicity

Assay [2] concerns prolyl endopeptidase. As to conditions: literature, J. Neurochem., 41, 69 (1983); cited from earlier work.

The structures appear in SMILES notation. Where a SMILES comes first, the peptide text is derived from it.

T1 sequence (Q9XTA2 whole entry): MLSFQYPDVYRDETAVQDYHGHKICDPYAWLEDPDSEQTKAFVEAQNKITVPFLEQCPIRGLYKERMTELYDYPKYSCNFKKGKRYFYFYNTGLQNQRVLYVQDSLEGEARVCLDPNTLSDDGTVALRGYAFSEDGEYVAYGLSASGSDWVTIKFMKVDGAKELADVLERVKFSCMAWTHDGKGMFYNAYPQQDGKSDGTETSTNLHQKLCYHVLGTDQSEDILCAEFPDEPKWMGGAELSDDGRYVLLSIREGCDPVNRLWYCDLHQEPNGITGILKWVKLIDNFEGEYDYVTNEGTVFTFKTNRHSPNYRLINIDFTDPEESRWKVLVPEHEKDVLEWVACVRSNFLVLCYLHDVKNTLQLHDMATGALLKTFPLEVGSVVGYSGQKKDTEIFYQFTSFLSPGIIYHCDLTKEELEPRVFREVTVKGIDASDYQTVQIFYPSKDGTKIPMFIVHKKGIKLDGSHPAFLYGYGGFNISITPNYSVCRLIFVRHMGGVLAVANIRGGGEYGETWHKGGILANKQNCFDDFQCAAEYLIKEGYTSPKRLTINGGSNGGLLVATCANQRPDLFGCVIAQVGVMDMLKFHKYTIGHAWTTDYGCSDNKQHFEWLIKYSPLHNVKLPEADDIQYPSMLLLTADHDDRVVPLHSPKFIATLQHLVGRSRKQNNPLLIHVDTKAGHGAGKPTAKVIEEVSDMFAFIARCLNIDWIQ

`CCOC(=O)C(=O)[C@@H]1CCCN1C(=O)C(CCCCCc1ccccc1)C(C)C` (mixture of isomers) [2 (h), 2-[(2S)-1-[(2RS)-2-isopropyl-7-phenylheptanoyl]pyrrolidin-2-yl]-2-oxoacetic acid ethyl ester]: the IC50 at prolyl endopeptidase [1] was 17 nM.

On to `CCC(O)[C@@H]1CSCN1C(=O)C1CCCCN1C(=O)CCc1ccccc1` (mixture of isomers) [15 (a), (1RS)-1-[(4R)-3-[1-(3-phenylpropanoyl)piperidin-2-ylcarbonyl]thiazolidin-4-yl]propan-1-ol], for which, on prolyl endopeptidase [1], the IC50 was 120 nM.

For the molecule `CN(Cc1ccccc1)C(=O)CCC(=O)N1CCC[C@H]1C(O)C(=O)OCc1ccccc1` (mixture of isomers) [Example 6, (2RS)-2-[(2S)-1-[3-(N-benzyl-N-methylcarbamoyl)propanoyl]pyrrolidin-2-yl]-2-hydroxyacetic acid benzyl ester], the IC50 at prolyl endopeptidase [1] worked out at 3000 nM.

In the case of `CCOC(=O)C(F)(F)C(O)[C@@H]1CCCN1C(=O)CCC(=O)N(C)Cc1ccccc1` (mixture of isomers) [Example 12, (3RS)-3-[(2S)-1-[3-(N-benzyl-N-methylcarbamoyl)propanoyl]pyrrolidin-2-yl]-3-hydroxy-2,2-difluoropropionic acid ethyl ester], the IC50 at prolyl endopeptidase [1] was found to be 69000 nM.

`CCC(O)[C@@H]1CCCN1C(=O)CCC(=O)N(C)Cc1ccccc1` (mixture of isomers) [Example 15, (1RS)-1-[(2S)-1-[3-(N-benzyl-N-methylcarbamoyl)propanoyl]pyrrolidin-2-yl]-propan-1-ol]: the IC50 on prolyl endopeptidase [1] is 1500 nM.

As to `CCOC(=O)C(=O)[C@@H]1CCCN1C(=O)CCC(=O)NC1c2ccccc2-c2ccccc21` [2 (b), 2-[(2S)-1-[3-[N-(9-fluorenyl)carbamoyl]propanoyl]pyrrolidin-2-yl]-2-oxoacetic acid ethyl ester], the IC50 at prolyl endopeptidase [1] stood at 1.8 nM.

In the case of `CCOC(=O)C(=O)[C@@H]1CCCN1C(=O)CCC(=O)N(Cc1ccc(C(F)(F)F)cc1)c1ccccc1` [2 (d), 2-[(2S)-1-[3-[N-(4-trifluoromethylphenylmethyl)-N-phenylcarbamoyl]propanoyl]pyrrolidin-2-yl]-2-oxoacetic acid ethyl], the IC50 at prolyl endopeptidase [1] was determined as 0.85 nM.

Turning to `CCOC(=O)C(=O)[C@@H]1CCCN1C(=O)CCC(=O)N(Cc1ccccc1)c1ccccc1` [2 (g), 2-[(2S)-1-[3-(N-benzyl-N-phenylcarbamoyl)propanoyl]pyrrolidin-2-yl]-2-oxoacetic acid ethyl ester], on prolyl endopeptidase [1], the IC50 came out at 1.7 nM.

On to `CCOC(=O)C(=O)[C@@H]1CCCN1C(=O)CCC(=O)NCc1ccc(Cl)cc1Cl` [2 (l), 2-[(2S)-1-[3-[N-(2,4-dichloro-phenylmethyl)carbamoyl]propanoyl]pyrrolidin-2-yl]-2-oxoacetic acid ethyl ester], for which, on prolyl endopeptidase [1], the IC50 was 1.8 nM.

With `O=C(CCCc1ccccc1)N1CSC[C@H]1C(=O)N1CSC[C@H]1C(O)c1ccccc1` (stereo partly drawn) [17 (a), (1RS)-1-phenyl-1-[(4R)-3-[(4R)-3-(4-phenylbutanoly)thiazolidin-4-ylcarbonyl]thiazolidin-4-yl]methanol], the IC50 on prolyl endopeptidase [1] turned out to be 180 nM.

`CCOC(=O)C(=O)[C@@H]1CCCN1C(=O)CCC(=O)N(C)Cc1ccccc1` [Example 2, 2-[(2S)-1-[3-(N-benzyl-N-methylcarbamoyl)propanoyl]pyrrolidin-2-yl]-2-oxoacetic acid ethyl ester]: the IC50 at prolyl endopeptidase [1] was determined as 3 nM.

On to `CN(Cc1ccccc1)C(=O)CCC(=O)N1CCC[C@H]1C(=O)C(=O)OCc1ccccc1` [Example 7, 2-[(2S)-1-[3-(N-benzyl-N-methylcarbamoyl)propanoyl]pyrrolidin-2-yl]-2-oxoacetic acid benzyl ester], for which the IC50 at prolyl endopeptidase [1] was determined as 1.2 nM.

Regarding `CN(Cc1ccccc1)C(=O)CCC(=O)N1CCC[C@H]1C(=O)C(F)(F)F` [Example 9, 1-[(2S)-1-[3-(N-benzyl-N-methylcarbamoyl)propanoyl]pyrrolidin-2-yl]-2,2,2-trifluoroethan-1-one], the IC50 on prolyl endopeptidase [1] was 23 nM.

For `CCOC(=O)C(F)(F)C(=O)[C@@H]1CCCN1C(=O)CCC(=O)N(C)Cc1ccccc1` [Example 13, 3-[(2S)-1-[3-(N-benzyl-N-methylcarbamoyl)propanoyl]pyrrolidin-2-yl]-3-oxo-2,2-difluoropropionic acid ethyl ester], the IC50 at prolyl endopeptidase [1] was 100 nM.

For the molecule `CN(Cc1ccccc1)C(=O)CCC(=O)N1CCC[C@H]1C1OCCO1` [Example 19, 2-[(2S)-1-[3-(N-benzyl-N-methylcarbamoyl)propanoyl]pyrrolidin-2-yl]-1,3-dioxolane], at prolyl endopeptidase [1], the IC50 was 14000 nM.

Turning to `O=C(NCC(=O)N1CCC[C@H]1C(=O)CCl)OCc1ccccc1` [N-benzyloxycarbonyl-glycyl-L-prolyl-chloromethane] (HELM PEPTIDE1{[O=C(OCc1ccccc1)[*:2]].G.P.[ClC[*:1]]}$$$$V2.0), the inhibit prolyl endopeptidase result in the assay on prolyl endopeptidase [2] was “strongly inhibit”.
